The record followed here is ChEMBL document CHEMBL5096175, “An insight into the medicinal attributes of berberine derivatives: A review” (Bioorg Med Chem, 2021).

SMILES strings stand for the structures. In brackets after ≈: the same amount, converted by molar mass.

The target of data set [1] is Amine oxidase [flavin-containing] B (Homo sapiens, UniProt P27338). Description: Inhibition of human MAO-B preincubated for 30 mins followed by substrate addition and measured for 10 to 40 mins by fluorescence based assay.
Chain of Amine oxidase [flavin-containing] B (P27338 whole entry): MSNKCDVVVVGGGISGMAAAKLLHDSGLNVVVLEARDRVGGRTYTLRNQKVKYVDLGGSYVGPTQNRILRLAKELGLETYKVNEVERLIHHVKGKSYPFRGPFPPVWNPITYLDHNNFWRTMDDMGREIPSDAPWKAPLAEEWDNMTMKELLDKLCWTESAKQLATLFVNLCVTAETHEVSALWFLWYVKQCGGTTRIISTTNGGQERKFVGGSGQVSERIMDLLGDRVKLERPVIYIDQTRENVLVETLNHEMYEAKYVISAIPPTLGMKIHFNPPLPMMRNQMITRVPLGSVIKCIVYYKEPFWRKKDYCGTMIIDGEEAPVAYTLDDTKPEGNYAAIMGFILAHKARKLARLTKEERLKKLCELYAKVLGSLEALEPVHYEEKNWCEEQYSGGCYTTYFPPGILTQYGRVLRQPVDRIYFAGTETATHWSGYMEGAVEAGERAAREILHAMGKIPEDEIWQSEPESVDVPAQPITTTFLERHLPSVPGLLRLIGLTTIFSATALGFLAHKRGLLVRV
Another data set has as its target Acetylcholinesterase (Homo sapiens, UniProt P22303). Description: Inhibition of acetylcholinesterase (unknown origin) using acetylthiocholine iodide as substrate incubated for 10 mins by Ellman's colorimetric method. For orientation: DTNB colorimetry detects thiols as they appear.
Data set [2] deals with RAW264.7. As to the kind of experiment: Antiinflammatory activity in LPS-induced mouse RAW264.7 cells assessed as reduction in […] level at 25 uM pretreated for 1 hr followed by LPS stimulation and measured after 49 hrs by ELISA relative to control. The format is functional. More on the design: scale not given: the % may be the effect or the level left. The note with it: time 50 hrs. On the technique in general: An ELISA detects its analyte on a solid surface through an enzyme-linked reagent.

A short description of data set [3]: Induction of glucose-stimulated insulin secretion in rat INS1 cells assessed as increase in insulin secretion at 25 uM pretreated for 48 hrs followed by glucose stimulation and measured after 1 hr by ELISA. The format is functional.
Data set [4] relates to RAW264.7. Description: Antiinflammatory activity in LPS-induced mouse RAW264.7 cells assessed as reduction in COX-2 level at 25 uM pretreated for 1 hr followed by LPS stimulation and measured after 49 hrs by ELISA relative to control. The format is functional. More on the design: scale not given: the % may be the effect or the level left. To be noted: time 50 hrs.
A further data set concerns Candida parapsilosis. Description: Antifungal activity against Candida parapsilosis ATCC 22019 assessed as inhibition of fungal growth incubated for 24 hrs. The format is functional. To be noted: Lodderomyces parapsilosis.
A further data set concerns Staphylococcus aureus. Description: Antibacterial activity against methicillin-resistant Staphylococcus aureus assessed as inhibition of bacterial growth incubated for 24 hrs by CLSI based broth microdilution method. The format is functional. (In general: Dilution methods test growth across graded concentrations, often in twofold steps.)
Another data set has as its system Pseudomonas aeruginosa. As to the kind of experiment: Antibacterial activity against Pseudomonas aeruginosa 27853 assessed as inhibition of bacterial growth incubated for 24 hrs by CLSI based broth microdilution method. The format is functional.
The test system of a further data set is Candida albicans. Description: Antifungal activity against Candida albicans ATCC 90023 assessed as inhibition of fungal growth incubated for 24 hrs. The format is functional.
A further data set has as its system Coxsackievirus B4. Description: Antiviral activity against Coxsackievirus B4 infected in African green monkey Vero cells assessed as reduction in virus-induced cytopathic effect incubated for 48 hrs by microscopic analysis. The format is functional, organism-based. To be noted: Enterovirus B.
The test system of the next data set is Coxsackievirus B6. Description: Antiviral activity against Human Coxsackievirus B6 infected in African green monkey Vero cells assessed as reduction in virus-induced cytopathic effect incubated for 48 hrs by microscopic analysis. The format is functional, organism-based. The note with it: Enterovirus B.
In the next data set the test system is Coxsackievirus B3. Description: Antiviral activity against Coxsackievirus B3 infected in African green monkey Vero cells assessed as reduction in virus-induced cytopathic effect incubated for 48 hrs by microscopic analysis. The format is functional, organism-based. To be noted: Enterovirus B.
For a further data set, the system named is Coxsackievirus B2. As to the kind of experiment: Antiviral activity against Human Coxsackievirus B2 infected in African green monkey Vero cells assessed as reduction in virus-induced cytopathic effect incubated for 48 hrs by microscopic analysis. The format is functional, organism-based. The note with it: Enterovirus B.
A further data set deals with Coxsackievirus B5. Description: Antiviral activity against Coxsackievirus B5 infected in African green monkey Vero cells assessed as reduction in virus-induced cytopathic effect incubated for 48 hrs by microscopic analysis. The format is functional, organism-based. The note with it: Enterovirus B.
Data set [5] in a line: Acute toxicity in ip dosed NIH mouse expressing aP2-SREBP-1c assessed as lethal dose measured for 14 days by modified karber's method. The format is organism-based. The note with it: in vivo, time 14 day.
Data set [6] can be described thus: Cytotoxicity against mouse 3T3-L1 assessed as reduction in cell viability measured after 48 hrs by CCK-8 assay. The format is toxicity, cell-based. To be noted: 3T3-L1 cells.
A further data set deals with Influenza A virus. Description: Antiviral activity against influenza virus A A/PR/8/34 infected in MDCK cells assessed as inhibition of virus-induced cytopathic effect measured after 48 hrs by SRB bioassay. The format is functional, organism-based. To be noted: A/PR/8/34, MDCK.
A short description of data set [7]: Cytotoxicity against MDCK cells incubated for 48 hrs by SRB bioassay. The format is toxicity, cell-based, Canis lupus familiaris. The note with it: dog.
Data set [8] can be described thus: Therapeutic index, ratio of CC50 for cytotoxicity against MDCK cells to IC50 for antiviral activity against influenza virus A A/PR/8/34. The format is toxicity, cell-based. The note with it: dog, read-out: TI.
Data set [9] relates to HL-60. As to the kind of experiment: Potency index, ratio of berberine IC50 to test compound IC50 for antiproliferative activity against human HL-60 cells incubated for 48 hrs by MTT assay. The format is functional.
Data set [10] relates to HL-60. Description: Antiproliferative activity against human HL-60 cells incubated for 48 hrs by MTT assay. The format is functional, cell-based. To be noted: HL-60, 48 h.

Chain of Acetylcholinesterase (P22303 whole entry): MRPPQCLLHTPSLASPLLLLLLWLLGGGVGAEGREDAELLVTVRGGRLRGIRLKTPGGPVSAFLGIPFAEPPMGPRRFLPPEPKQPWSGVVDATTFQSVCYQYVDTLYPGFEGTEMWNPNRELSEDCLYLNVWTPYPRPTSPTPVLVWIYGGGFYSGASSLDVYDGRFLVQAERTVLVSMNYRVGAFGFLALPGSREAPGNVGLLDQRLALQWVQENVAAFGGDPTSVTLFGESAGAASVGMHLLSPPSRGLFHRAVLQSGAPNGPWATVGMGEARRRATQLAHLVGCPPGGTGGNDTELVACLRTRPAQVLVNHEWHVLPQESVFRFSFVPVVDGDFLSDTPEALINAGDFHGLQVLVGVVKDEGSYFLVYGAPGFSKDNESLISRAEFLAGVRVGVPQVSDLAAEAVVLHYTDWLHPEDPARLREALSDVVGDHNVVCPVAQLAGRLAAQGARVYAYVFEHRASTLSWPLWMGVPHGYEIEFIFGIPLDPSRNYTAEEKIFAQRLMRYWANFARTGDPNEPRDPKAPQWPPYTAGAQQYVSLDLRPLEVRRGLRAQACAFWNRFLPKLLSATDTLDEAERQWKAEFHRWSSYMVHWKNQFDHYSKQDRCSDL

`COc1ccc2cc3[n+](cc2c1OC)CCc1cc(O)c(O)cc1-3`: the IC50 (usually the midpoint of a concentration-inhibition curve) in data set [1] turned out to be 9.06 µM; on Acetylcholinesterase, 7.8 µM.
For the compound `COc1ccc2cc3[n+](cc2c1OCc1nc(C)nc(N(C)C)n1)CCc1cc2c(cc1-3)OCO2.[Cl-]`, the values for the Activity (in the data set with RAW264.7 [2]; in data set [3]; in the data set on RAW264.7 [4]) were 36.41%, 143% and 25.42%, respectively.
Turning to `CCCCOc1c(OC)cc(/C=C2\SC(=O)NC2=O)c2c1CN1CCc3cc4c(cc3C1C2)OCO4` (stereo unspecified), the MIC (in general, the lowest concentration that inhibits growth of the organism) in the data set with Candida parapsilosis stood at 8 µM (≈ 4.07 µg/mL); in the data set on Staphylococcus aureus it was 8 µM (≈ 4.07 µg/mL); in the data set on Pseudomonas aeruginosa it was 8 µM (≈ 4.07 µg/mL); with Candida albicans, 16 µM (≈ 8.14 µg/mL).
Regarding `COc1cc2c(cc1OCCOCCN)CC[n+]1cc3c(OC)c(OC)ccc3cc1-2`, the IC50 with Coxsackievirus B4, in the data set on Coxsackievirus B6, with Coxsackievirus B3, in the data set with Coxsackievirus B2 and in the data set with Coxsackievirus B5 was 3.08 µM in each case.
Turning to `C=CCc1ccc(O)c(-c2cc(CC=C)ccc2OCCOc2c(OC)ccc3cc4[n+](cc23)CCc2cc3c(cc2-4)OCO3)c1.[Cl-]`, in [5], the LD50 (in general, the dose expected to kill half of the subjects tested) at 336 h worked out at 279 mg/kg. In addition, the IC50 at 48 h in data set [6] stood at 11.5 µM.
With `COc1ccc(N2CCN(CCCCCOc3c(OC)ccc4cc5[n+](cc34)CCc3cc4c(cc3-5)OCO4)CC2)c(OC)c1.[Cl-]`, the IC50 with Influenza A virus stood at 35.2 µg/mL. Moreover, the midpoint of cytotoxicity in data set [7], the CC50 at 48 h, lay at 3890 µg/mL. Also, the selectivity ratio in data set [8] worked out at 111.
With `COc1ccc2cc3[n+](cc2c1OCCCBr)CCc1cc2c(cc1-3)OCO2.[Cl-]`, in the data set with HL-60 [9], the “Ratio IC50” value amounted to 30. It took 0.7 µM to reach half-maximal inhibition with HL-60 [10] (IC50).
